What follows are compounds tested against recombinant human baculovirus-expressed cMET (Homo sapiens (Human), UniProt P08581) (assay: c-MET kinase assay (HTRF KinEASE)). Conditions: average of two or more determinations; read-out: c-MET IC50.
Assay type: biochemical

SMILES	IC50 [nM]
Cc1ccc(C(=O)Nc2ccc(Oc3cc(N4CCOCC4)cn4nccc34)c(F)c2)c(=O)n1-c1ccc(F)cc1 [Example 60, 1-(4-Fluoro-phenyl)-6-methyl-2-oxo-1,2-dihydro-pyridine-3-carboxylic acid [3-fluoro-4-(6-morpholin-4-yl-pyrazolo[1,5-a]pyridin-4-yloxy)-phenyl]-amide]	< 10
CCn1cc(C(=O)Nc2ccc(Oc3cc(N4CCOCC4)cn4nccc34)c(F)c2)c(=O)n(-c2ccc(F)cc2)c1=O [Example 61, 1-Ethyl-3-(4-fluoro-phenyl)-2,4-dioxo-1,2,3,4-tetrahydro-pyrimidine-5-carboxylic acid[3-fluoro-4-(6-morpholin-4-yl-pyrazolo[1,5-a]pyridin-4-yloxy)-phenyl]-amide]	< 10
O=C(Nc1ccc(F)cc1)C1(C(=O)Nc2ccc(Oc3cc(N4CCOCC4)cn4nccc34)c(F)c2)CC1 [Example 63, Cyclopropane-1,1-dicarboxylic acid[3-fluoro-4-(6-morpholin-4-yl-pyrazolo[1,5-a]pyridin-4-yloxy)-phenyl]-amide(4-fluoro-phenyl)-amide]	10 to 100
O=C(Nc1ccc(Oc2cc(N3CCC4(CC3)OCCO4)cn3nccc23)c(F)c1)c1cccn(-c2ccc(F)cc2)c1=O [Example 67, 1-4-(Fluoro-phenyl)-2-oxo-1,2-dihydro-pyridine-3-carboxylic acid{4-[6-(1,4-dioxa-8-aza-spiro[4,5]dec-8-yl)-pyrazolo[1,5-a]pyridin-4-yloxy]-3-fluoro-phenyl}-amide]	10 to 100
CC(C)n1cc(C(=O)Nc2ccc(Oc3cc(N4CCC(F)(F)CC4)cn4nccc34)c(F)c2)c(=O)n(-c2ccc(F)cc2)c1=O [Example 69, 3-(4-Fluoro-phenyl)-1-isopropyl-2,4-dioxo-1,2,3,4-tetrahydro-pyrimidine-5-carboxylic acid{4-[6-(4,4-difluoro-piperidin-1-yl)-pyrazolo[1,5-a]pyridin-4-yloxy]-3-fluoro-phenyl}-amide]	10 to 100
CCn1cc(C(=O)Nc2ccc(Oc3cc(N4CCC(F)(F)C4)cn4nccc34)c(F)c2)c(=O)n(-c2ccc(F)cc2)c1=O [Example 70, 1-Ethyl-3-(4-fluoro-phenyl)-2,4-dioxo-1,2,3,4-tetrahydro-pyrimidine-5-carboxylic acid{4-[6-(3,3-difluoro-pyrrolidin-1-yl)-pyrazolo[1,5-a]pyridin-4-yloxy]-3-fluoro-phenyl}-amide]	10 to 100
CC(C)n1cc(C(=O)Nc2ccc(Oc3cc(N4CCC(F)(F)C4)cn4nccc34)c(F)c2)c(=O)n(-c2ccc(F)cc2)c1=O [Example 71, 3-(4-Fluoro-phenyl)-1-isopropyl-2,4-dioxo-1,2,3,4-tetrahydro-pyrimidine-5-carboxylic acid{4-[6-(3,3-difluoro-pyrrolidin-1-yl)-pyrazolo[1,5-a]pyridin-4-yloxy]-3-fluoro-phenyl}-amide]	10 to 100
O=C(Nc1ccc(Oc2cc(N3CCS(=O)(=O)CC3)cn3nccc23)c(F)c1)c1cccn(-c2ccc(F)cc2)c1=O [Example 72, 1-(4-Fluoro-phenyl)-2-oxo-1,2-dihydro-pyridine-3-carboxylic acid{4-[6-(1,1-dioxo-thiomorpholin-4-yl)-pyrazolo[1,5-a]pyridin-4-yloxy]-3-fluoro-phenyl}-amide]	10 to 100
CCn1cc(C(=O)Nc2ccc(Oc3cc(N4CCS(=O)(=O)CC4)cn4nccc34)c(F)c2)c(=O)n(-c2ccc(F)cc2)c1=O [Example 73, 1-Ethyl-3-(4-fluoro-phenyl)-2,4-dioxo-1,2,3,4-tetrahydro-pyrimidine-5-carboxylic acid{4-[6-(1,1-dioxo-thiomorpholin-4-yl)-pyrazolo[1,5-a]pyridin-4-yloxy]-3-fluoro-phenyl}-amide]	< 10
CC(C)n1cc(C(=O)Nc2ccc(Oc3cc(N4CCS(=O)(=O)CC4)cn4nccc34)c(F)c2)c(=O)n(-c2ccc(F)cc2)c1=O [Example 74, 3-(4-Fluoro-phenyl)-1-isopropyl-2,4-dioxo-1,2,3,4-tetrahydro-pyrimidine-5-carboxylic acid{4-[6-(1,1-dioxo-thiomorpholin-4-yl)-pyrazolo[1,5-a]pyridin-4-yloxy]-3-fluoro-phenyl}-amide]	< 10
O=C(Nc1ccc(Oc2cc(N3CCCC3)cn3nccc23)c(F)c1)c1cccn(-c2ccc(F)cc2)c1=O [Example 75, 1-(4-Fluoro-phenyl)-2-oxo-1,2-dihydro-pyridine-3-carboxylic acid[3-fluoro-4-(6-pyrrolidin-1-yl-pyrazolo[1,5-a]pyridin-4-yloxy)-phenyl]-amide]	< 10
O=C(Nc1ccc(Oc2cc(N3CCCC3=O)cn3nccc23)c(F)c1)c1cccn(-c2ccc(F)cc2)c1=O [Example 76, 1-(4-Fluoro-phenyl)-2-oxo-1,2-dihydro-pyridine-3-carboxylic acid{3-fluoro-4-[6-(2-oxo-pyrrolidin-1-yl)-pyrazolo[1,5-a]pyridin-4-yloxy]-phenyl}-amide]	< 10
CC(C)n1cc(C(=O)Nc2ccc(Oc3cc(N4CCCC4=O)cn4nccc34)c(F)c2)c(=O)n(-c2ccc(F)cc2)c1=O [Example 78, 3-(4-Fluoro-phenyl)-1-isopropyl-2,4-dioxo-1,2,3,4-tetrahydro-pyrimidine-5-carboxylic acid {3-fluoro-4-[6-(2-oxo-pyrrolidin-1-yl)-pyrazolo[1,5-a]pyridin-4-yloxy]-phenyl}-amide]	< 10
O=C(Nc1ccc(Oc2cc(Nc3ccccc3)cn3nccc23)c(F)c1)c1cccn(-c2ccc(F)cc2)c1=O [Example 80, 1-(4-Fluoro-phenyl)-2-oxo-1,2-dihydro-pyridine-3-carboxylic acid[3-fluoro-4-(6-phenylamino-pyrazolo[1,5-a]pyridin-4-yloxy)-phenyl]-amide]	< 10
O=C(Nc1ccc(Oc2cc(Nc3ccccn3)cn3nccc23)c(F)c1)c1cccn(-c2ccc(F)cc2)c1=O [Example 81, 1-(4-Fluoro-phenyl)-2-oxo-1,2-dihydro-pyridine-3-carboxylic acid{3-fluoro-4-[6-(pyridin-2-ylamino)-pyrazolo[1,5-a]pyridin-4-yloxy]-phenyl}-amide]	< 10
Cc1c(Nc2cc(Oc3ccc(NC(=O)c4cccn(-c5ccc(F)cc5)c4=O)cc3F)c3ccnn3c2)cnn1C [Example 82, 1-(4-Fluoro-phenyl)-2-oxo-1,2-dihydro-pyridine-3-carboxylic acid{4-[6-(1,5-dimethyl-1H-pyrazol-4-ylamino)-pyrazolo[1,5-a]pyridin-4-yloxy]-3-fluoro-phenyl}-amide]	< 10
Cc1ccc(C(=O)Nc2ccc(Oc3cc(Nc4ccc(F)cn4)cn4nccc34)c(F)c2)c(=O)n1-c1ccc(F)cc1 [Example 83, 1-(4-Fluoro-phenyl)-6-methyl-2-oxo-1,2-dihydro-pyridine-3-carboxylic acid {3-fluoro-4-[6-(5-fluoro-pyridin-2-ylamino)-pyrazolo[1,5-a]pyridin-4-yloxy]-phenyl}-amide]	< 10

Same assay, conditions: read-out: c-MET IC50

SMILES	IC50 [nM]
CCOc1ccn(-c2ccc(F)cc2)c(=O)c1C(=O)Nc1ccc(Oc2cc(N3CCOCC3)cn3nccc23)c(F)c1 [Example 66, 4-Ethoxy-1-(4-fluoro-phenyl)-2-oxo-1,2-dihydro-pyridine-3-carboxylic acid [3-fluoro-4-(6-morpholin-4-yl-pyrazolo[1,5-a]pyridin-4-yloxy)-phenyl]-amide]	< 10

— US9914731B2, “Pyrazolo[1,5-a]pyridine derivatives and methods of their use” (Ignyta, Inc., priority 2013, dated 2018)
